{
  "source": "ChEMBL document CHEMBL3217680",
  "about": "“Synthesis and antiproliferative activity of some 3-(pyrid-2-yl)-pyrazolines” (Medchemcomm, 2013)",
  "key": {"[1]": {"test_system": "MDA-MB-231", "assay": "Antiproliferative activity against human MDA-MB-231 cells by MTS assay", "type": "functional, cell-based"}, "[2]": {"test_system": "HT-29", "assay": "Antiproliferative activity against human HT-29 cells by MTS assay", "type": "functional, cell-based"}, "[3]": {"target": "Tubulin (Homo sapiens) (UniProt P68371+Q9H4B7+P0DPH7+P68366+Q13509+Q71U36+P04350+Q3ZCM7+P07437+P68363+Q9BQE3+Q6PEY2+Q13885+Q9BVA1+Q9BUF5)", "assay": "Induction of tubulin (unknown origin) polymerization at 5 uM", "type": "protein-complex assay"}},
  "note": "Activity calls are given as the source filed them. No cut-off for these calls is given here.",
  "data": [
    {"smiles": "COc1cc(C2CC(c3ccccn3)=NN2C(C)=O)cc(OC)c1OC", "note": "(stereo not drawn)", "values": [
      {"measurement": "IC50", "setting": "[1]", "value": 52.5, "unit": "µM"},
      {"measurement": "IC50", "setting": "[2]", "value": "> 500", "unit": "µM"}
    ]},
    {"smiles": "COc1cc(C2CC(c3ccccn3)=NN2c2ccccc2)cc(OC)c1OC", "note": "(stereo not drawn)", "values": [
      {"measurement": "IC50", "setting": "[1]", "value": 4.36, "unit": "µM"},
      {"measurement": "IC50", "setting": "[2]", "value": 26.2, "unit": "µM"}
    ]},
    {"smiles": "O=C(c1ccccc1)N1N=C(c2ccccn2)C[C@H]1c1ccccc1", "values": [
      {"measurement": "IC50", "setting": "[1]", "value": "> 500", "unit": "µM"},
      {"measurement": "IC50", "setting": "[2]", "value": "> 500", "unit": "µM"}
    ]},
    {"smiles": "CN1N=C(c2ccccn2)CC1c1ccccc1", "note": "(stereo not drawn)", "values": [
      {"measurement": "IC50", "setting": "[1]", "value": 135, "unit": "µM"},
      {"measurement": "IC50", "setting": "[2]", "value": 116, "unit": "µM"}
    ]},
    {"smiles": "COc1cc(/C=C/C(=O)c2ccccn2)cc(OC)c1OC", "values": [
      {"measurement": "IC50", "setting": "[1]", "value": 9.7, "unit": "µM"},
      {"measurement": "IC50", "setting": "[2]", "value": 9.6, "unit": "µM"}
    ]},
    {"smiles": "CNC(=S)N1N=C(c2ccccn2)C[C@H]1c1ccccc1", "values": [
      {"measurement": "IC50", "setting": "[1]", "value": 20.7, "unit": "µM"},
      {"measurement": "IC50", "setting": "[2]", "value": 25.6, "unit": "µM"}
    ]},
    {"smiles": "CC(=O)O[C@H]1C(=O)[C@@]2(C)[C@H]([C@H](OC(=O)c3ccccc3)[C@]3(O)C[C@H](OC(=O)[C@H](O)[C@@H](NC(=O)c4ccccc4)c4ccccc4)C(C)=C1C3(C)C)[C@]1(OC(C)=O)CO[C@@H]1C[C@@H]2O", "values": [
      {"measurement": "Activity", "setting": "[3]", "value": "Active"}
    ]}
  ]
}
